Laboratory results from ChEMBL document CHEMBL2074135, “Recognition of L-amino acid ester compounds by rat peptide transporters PEPT1 and PEPT2” (J Pharmacol Exp Ther, 1999).
Several values for one entry are separate records, joined by “and”; a condition that tells them apart may be missing. Identical values can stand only once.

Key:
Type in all cases: functional, cell-based
[1] = target: T1, Solute carrier family 15 member 1 (Rattus norvegicus) (UniProt P51574); experiment: TP_TRANSPORTER: inhibition of Gly-Sar uptake (Gly-Sar: 20 uM, Ser-OMe: 10000 uM) in PEPT1-expressing LLC-PK1 cells
T1 sequence (whole entry): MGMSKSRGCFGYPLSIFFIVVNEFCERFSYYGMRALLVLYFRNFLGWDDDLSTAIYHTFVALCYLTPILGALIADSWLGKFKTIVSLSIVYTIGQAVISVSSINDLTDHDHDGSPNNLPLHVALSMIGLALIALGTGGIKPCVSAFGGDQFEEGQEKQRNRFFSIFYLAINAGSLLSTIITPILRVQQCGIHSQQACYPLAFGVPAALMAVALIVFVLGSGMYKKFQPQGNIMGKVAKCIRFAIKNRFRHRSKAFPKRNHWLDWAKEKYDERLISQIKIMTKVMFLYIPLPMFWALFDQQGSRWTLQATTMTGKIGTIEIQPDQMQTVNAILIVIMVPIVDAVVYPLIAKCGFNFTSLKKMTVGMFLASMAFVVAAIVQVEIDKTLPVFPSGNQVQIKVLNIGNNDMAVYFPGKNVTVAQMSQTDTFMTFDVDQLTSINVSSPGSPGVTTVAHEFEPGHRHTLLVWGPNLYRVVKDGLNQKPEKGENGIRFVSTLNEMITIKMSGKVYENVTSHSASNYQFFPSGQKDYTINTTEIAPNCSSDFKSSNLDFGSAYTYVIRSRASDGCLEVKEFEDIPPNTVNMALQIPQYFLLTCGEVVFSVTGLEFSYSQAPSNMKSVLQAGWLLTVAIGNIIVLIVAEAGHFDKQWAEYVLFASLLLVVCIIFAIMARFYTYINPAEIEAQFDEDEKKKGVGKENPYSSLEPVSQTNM

[2] = target: T2, Solute carrier family 15 member 2 (Rattus norvegicus) (UniProt Q63424); experiment: TP_TRANSPORTER: inhibition of Gly-Sar uptake (Gly-Sar: 20 uM, Val-tBu: 10000 uM) in PEPT2-expressing LLC-PK1 cells
T2 sequence (whole entry): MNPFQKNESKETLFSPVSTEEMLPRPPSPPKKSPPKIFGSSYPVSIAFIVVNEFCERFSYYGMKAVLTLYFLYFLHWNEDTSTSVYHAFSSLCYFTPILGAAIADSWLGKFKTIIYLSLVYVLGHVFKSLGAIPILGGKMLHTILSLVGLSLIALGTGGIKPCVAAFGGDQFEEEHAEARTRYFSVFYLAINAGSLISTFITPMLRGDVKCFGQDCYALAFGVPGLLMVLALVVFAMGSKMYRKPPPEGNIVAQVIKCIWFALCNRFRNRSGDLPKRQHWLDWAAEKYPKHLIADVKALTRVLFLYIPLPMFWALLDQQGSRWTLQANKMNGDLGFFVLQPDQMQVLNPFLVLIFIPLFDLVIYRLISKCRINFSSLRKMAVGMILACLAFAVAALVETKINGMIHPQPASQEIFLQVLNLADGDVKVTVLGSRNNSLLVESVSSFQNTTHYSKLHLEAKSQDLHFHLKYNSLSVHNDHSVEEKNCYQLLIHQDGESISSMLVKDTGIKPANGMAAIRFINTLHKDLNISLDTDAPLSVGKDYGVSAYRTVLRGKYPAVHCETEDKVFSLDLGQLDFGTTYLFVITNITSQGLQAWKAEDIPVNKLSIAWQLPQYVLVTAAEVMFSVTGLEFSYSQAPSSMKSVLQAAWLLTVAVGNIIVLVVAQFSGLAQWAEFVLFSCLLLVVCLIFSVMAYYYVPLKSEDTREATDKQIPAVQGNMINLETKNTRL

[3] = target: T1, Solute carrier family 15 member 1 (Rattus norvegicus); experiment: TP_TRANSPORTER: inhibition of Gly-Sar uptake (Gly-Sar: 20 uM, Val-tBu: 10000 uM) in PEPT1-expressing LLC-PK1 cells
[4] = target: T1, Solute carrier family 15 member 1 (Rattus norvegicus); experiment: TP_TRANSPORTER: inhibition of Gly-Sar uptake (Gly-Sar: 20 uM, Val-OEt: 10000 uM) in PEPT1-expressing LLC-PK1 cells
[5] = target: T2, Solute carrier family 15 member 2 (Rattus norvegicus); experiment: TP_TRANSPORTER: inhibition of Gly-Sar uptake (Gly-Sar: 20 uM, Val-OEt: 10000 uM) in PEPT2-expressing LLC-PK1 cells
[6] = target: T3, Solute carrier family 15 member 2 (Rattus norvegicus, UniProt Q63424); experiment: TP_TRANSPORTER: inhibition of Gly-Sar uptake in PEPT2-expressing LLC-PK1 cells
T3 sequence (Q63424 whole entry): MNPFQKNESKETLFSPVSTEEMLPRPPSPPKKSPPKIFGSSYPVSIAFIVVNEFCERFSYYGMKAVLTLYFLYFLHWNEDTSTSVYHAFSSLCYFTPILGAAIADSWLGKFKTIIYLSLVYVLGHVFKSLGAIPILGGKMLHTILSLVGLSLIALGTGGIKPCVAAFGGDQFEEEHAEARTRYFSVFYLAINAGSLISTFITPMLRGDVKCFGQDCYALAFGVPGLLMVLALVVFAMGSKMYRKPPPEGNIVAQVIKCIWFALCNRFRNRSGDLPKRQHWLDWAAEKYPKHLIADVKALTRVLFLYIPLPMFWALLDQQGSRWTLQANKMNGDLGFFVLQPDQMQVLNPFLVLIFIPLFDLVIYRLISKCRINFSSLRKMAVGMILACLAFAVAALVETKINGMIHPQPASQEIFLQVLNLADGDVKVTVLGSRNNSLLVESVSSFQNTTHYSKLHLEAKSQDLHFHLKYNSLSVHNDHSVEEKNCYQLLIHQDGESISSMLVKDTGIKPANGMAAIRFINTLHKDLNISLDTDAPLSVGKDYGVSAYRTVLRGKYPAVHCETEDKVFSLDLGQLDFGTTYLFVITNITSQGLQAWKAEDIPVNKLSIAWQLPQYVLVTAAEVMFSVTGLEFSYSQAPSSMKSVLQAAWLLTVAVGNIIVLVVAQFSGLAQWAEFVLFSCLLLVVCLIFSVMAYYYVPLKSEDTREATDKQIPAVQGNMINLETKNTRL

[7] = target: T4, Solute carrier family 15 member 1 (Rattus norvegicus, UniProt P51574); experiment: TP_TRANSPORTER: inhibition of Gly-Sar uptake in PEPT1-expressing LLC-PK1 cells
T4 sequence (P51574 whole entry): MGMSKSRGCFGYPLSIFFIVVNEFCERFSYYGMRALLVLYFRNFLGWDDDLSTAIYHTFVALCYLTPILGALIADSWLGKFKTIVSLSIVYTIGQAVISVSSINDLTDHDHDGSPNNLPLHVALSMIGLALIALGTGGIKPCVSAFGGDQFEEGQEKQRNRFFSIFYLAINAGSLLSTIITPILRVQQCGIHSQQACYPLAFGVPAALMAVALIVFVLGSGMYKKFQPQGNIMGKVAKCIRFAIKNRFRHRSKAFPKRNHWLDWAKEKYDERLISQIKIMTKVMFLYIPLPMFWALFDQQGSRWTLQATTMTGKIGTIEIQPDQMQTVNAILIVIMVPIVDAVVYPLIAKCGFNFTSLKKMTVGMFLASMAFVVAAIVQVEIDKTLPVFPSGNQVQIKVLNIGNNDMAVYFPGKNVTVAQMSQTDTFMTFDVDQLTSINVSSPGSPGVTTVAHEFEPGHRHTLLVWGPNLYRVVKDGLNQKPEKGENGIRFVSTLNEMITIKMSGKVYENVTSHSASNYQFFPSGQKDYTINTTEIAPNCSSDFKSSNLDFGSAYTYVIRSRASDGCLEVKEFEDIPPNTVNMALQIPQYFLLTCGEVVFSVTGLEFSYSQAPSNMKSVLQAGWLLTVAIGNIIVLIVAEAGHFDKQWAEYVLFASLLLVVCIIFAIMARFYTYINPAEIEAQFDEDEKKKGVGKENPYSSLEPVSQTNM

[8] = target: T1, Solute carrier family 15 member 1 (Rattus norvegicus); experiment: TP_TRANSPORTER: inhibition of Gly-Sar uptake (Gly-Sar: 20 uM, Ile-OMe: 10000 uM) in PEPT1-expressing LLC-PK1 cells
[9] = target: T2, Solute carrier family 15 member 2 (Rattus norvegicus); experiment: TP_TRANSPORTER: inhibition of Gly-Sar uptake (Gly-Sar: 20 uM, Ile-OMe: 10000 uM) in PEPT2-expressing LLC-PK1 cells

For `COC(=O)[C@@H](N)CO`, the Activity [1] was “inhibitor [+]”.
In the case of `CC(C)[C@H](N)C(=O)OC(C)(C)C`, the Activity [2] is reported as “inhibitor [+]” and the Activity [3] is reported as “inhibitor [+]”.
With `CCOC(=O)[C@@H](N)C(C)C` the Activity [4] was “inhibitor [+]” and the Activity [5] was “inhibitor [+]”.
In the case of `CC(C)[C@H](N)C(=O)OCCOCn1cnc2c(=O)[nH]c(N)nc21` [VALACYCLOVIR], the Ki [6] is reported as 220 µM, the Ki ([6]; llc-pk1) is reported as 220 µM and the Ki [7] is reported as 2500 µM and 2700 µM.
`COC(=O)[C@@H](N)C(C)C` was tested, and the Ki [6] was 830 µM and the Ki [7] was 3600 µM.
`CC[C@H](C)[C@H](N)C(=O)OC` was tested, and the Activity [8] was “inhibitor [+]” and the Activity [9] was “inhibitor [+]”.
